Data from US9670227B2, “Thienopyrimidine derivatives, a process for their preparation and pharmaceutical compositions containing them” (LES LABORATOIRES SERVIER, priority 2013, dated 2017).
Where two headings read alike, the source gives them in different places.

Tests used:
[1] = system: H929 multiple myeloma tumour line; assay: In vitro cytotoxicity, Microculture Tetrazolium Assay; type: cell-based
Protocol: The cytotoxicity studies were carried out on the H929 multiple myeloma tumour line.
The cells are distributed onto microplates and exposed to the test compounds for 48 hours.

Mcl-1 protein = Mcl-1 protein (UniProtKB primary accession number: Q07820) (Homo sapiens, UniProt Q07820); assay: Inhibition of Mcl-1 by fluorescence polarisation, Method 1; type: binding; settings: read-out: IC50 (M) Mcl-1 FP
How it was run: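 Buffer of 10 mM HEPES pH 7.4 with 150 mM NaCl and 0.05% Tween 20 held 5 nM Mcl-1 and 1 nM fluorescein-tagged ligand (final). Compounds were tested as 11-point serial dilutions at 5% final DMSO, and binding was read by FP.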

[2] = Homo sapiens, NCI-H929, 48 h, H929 cells, 48 hours exposure, MTT, read-out: IC50 (μM) MTT H929
[3] = fluorescence polarisation, Method 1, or Method 2
[4] = fluorescence polarisation test, Method 2 values are underlined in the patent (underlining not visible here)

Sequence of Mcl-1 protein (Q07820 whole entry): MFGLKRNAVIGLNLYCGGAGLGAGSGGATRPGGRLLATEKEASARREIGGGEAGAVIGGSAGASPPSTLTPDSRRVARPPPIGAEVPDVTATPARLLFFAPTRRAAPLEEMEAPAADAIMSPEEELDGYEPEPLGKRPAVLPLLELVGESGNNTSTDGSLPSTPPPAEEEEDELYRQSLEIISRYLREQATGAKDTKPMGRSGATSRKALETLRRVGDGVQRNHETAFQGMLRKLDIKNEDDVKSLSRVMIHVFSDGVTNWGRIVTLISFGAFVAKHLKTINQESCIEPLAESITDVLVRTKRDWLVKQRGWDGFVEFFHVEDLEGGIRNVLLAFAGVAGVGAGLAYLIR

Row | Structure (SMILES) | IC50 [1, 2] | IC50 (Mcl-1 protein; [3]) | IC50 (Mcl-1 protein; [4]) | IC50 ([1]; Homo sapiens, NCI-H929, 48 h, read-out: IC50 (μM) MTT H929, H929 cells, 48 hours exposure, MTT) | IC50 ([1]; H929 cells, 48 hours exposure, MTT, read-out: IC50 (μM) MTT H929)
1 | COCCOc1cccc(-c2sc3ncnc(OC(Cc4ccccc4OC)C(=O)O)c3c2-c2ccc(OCCN3CCN(C)CC3)c(Cl)c2C)c1 [Example 589, (2R)-2-[((5Sa)-5-{3-chloro-2-methyl-4-[2-(4-methylpiperazin-1-yl)ethoxy]phenyl}-6-[3-(2-methoxyethoxy)phenyl]thieno[2,3-d]pyrimidin-4-yl)oxy]-3-(2-methoxyphenyl)propanoic acid] | 0.233 µM | 8.7e-09 M | – | – | –
2 | Cc1cc(COc2ccccc2CC(Oc2ncnc3sc(-c4ccc(F)o4)c(-c4ccc(OCCN5CCN(C)CC5)c(Cl)c4C)c23)C(=O)O)ncn1 [Example 161, (2R)-2-{[(5Sa)-5-{3-chloro-2-methyl-4-[2-(4-methylpiperazin-1-yl)ethoxy]phenyl}-6-(5-fluorofuran-2-yl)thieno[2,3-d]pyrimidin-4-yl]oxy}-3-{2-[(6-methylpyrimidin-4-yl)methoxy]phenyl}propanoic acid] | 0.081 µM | – | 3.9e-09 M | – | –
3 | Cc1c(-c2c(-c3ccco3)sc3ncnc(OC(Cc4ccccc4OCC4CCO4)C(=O)O)c23)ccc(OCCN2CCN(C)CC2)c1Cl [Example 266, (2R)-2-{[(5Sa)-5-{3-chloro-2-methyl-4-[2-(4-methylpiperazin-1-yl)ethoxy]phenyl}-6-(furan-2-yl)thieno[2,3-d]pyrimidin-4-yl]oxy}-3-[2-(oxetan-2-ylmethoxy)phenyl]propanoic acid] | 0.093 µM | – | 5.7e-09 M | – | –
4 | COc1ccccc1C[C@@H](Oc1ncnc2sc(-c3ccc(F)cc3)c(-c3ccc(CCCN4CCN(C)CC4)c(Cl)c3C)c12)C(=O)O (single isomer, unassigned) [Example 654] | – | 4e-08 M | – | 2.08 µM | –
5 | Cc1ccc(-c2sc3ncnc(O[C@H](Cc4ccccc4)C(=O)O)c3c2-c2ccc(OCCN3CCN(C)CC3)c(Cl)c2C)s1 [Example 500, (2R)-2-{[(5Sa)-5-{3-chloro-2-methyl-4-[2-(4-methylpiperazin-1-yl)ethoxy]phenyl}-6-(5-methylthiophen-2-yl)thieno[2,3-d]pyrimidin-4-yl]oxy}-3-phenylpropanoic acid] | – | 8e-08 M | – | – | 2.25 µM
6 | Cc1c(-c2c(-c3ccc(F)cc3)sc3ncnc(OC(Cc4ccccc4OCc4ccnn4CCN(C)C)C(=O)O)c23)ccc(OCCN2CCN(C)CC2)c1Cl [Example 87, (2R)-2-{[(5Sa)-5-{3-chloro-2-methyl-4-[2-(4-methylpiperazin-1-yl)ethoxy]phenyl}-6-(4-fluorophenyl)thieno[2,3-d]pyrimidin-4-yl]oxy}-3-[2-({1-[2-(dimethylamino)ethyl]-1H-pyrazol-5-yl}methoxy)phenyl]propanoic acid] | 0.274 µM | – | 7e-09 M | – | –
7 | Cc1c(-c2c(-c3ccco3)sc3ncnc(OC(Cc4ccccc4OCC4CC4)C(=O)O)c23)ccc(OCCN2CCN(C)CC2)c1Cl [Example 229, (2R)-2-{[(5Sa)-5-{3-chloro-2-methyl-4-[2-(4-methylpiperazin-1-yl)ethoxy]phenyl}-6-(furan-2-yl)thieno[2,3-d]pyrimidin-4-yl]oxy}-3-[2-(cyclopropylmethoxy)phenyl]propanoic acid] | 0.134 µM | – | 4.5e-09 M | – | –
8 | CCCCn1nccc1COc1ccccc1CC(Oc1ncnc2sc(C#CCOC)c(-c3ccc(OCCN4CCN(C)CC4)c(Cl)c3C)c12)C(=O)O [Example 613, (2R)-3-{2-[(1-butyl-1H-pyrazol-5-yl)methoxy]phenyl}-2-{[(5Sa)-5-{3-chloro-2-methyl-4-[2-(4-methylpiperazin-1-yl)ethoxy]phenyl}-6-(3-methoxyprop-1-yn-1-yl)thieno[2,3-d]pyrimidin-4-yl]oxy}propanoic acid] | 0.158 µM | 3.5e-09 M | – | – | –
9 | CCOc1nccc(COc2ccccc2CC(Oc2ncnc3sc(-c4ccc(F)cc4)c(-c4ccc(OCCN(C)C)c(Cl)c4C)c23)C(=O)O)n1 [Example 130, (2R)-2-{[(5Sa)-5-{3-chloro-4-[2-(dimethylamino)ethoxy]-2-methylphenyl}-6-(4-fluorophenyl)thieno[2,3-d]pyrimidin-4-yl]oxy}-3-{2-[(2-ethoxypyrimidin-4-yl)methoxy]phenyl}propanoic acid] | 0.065 µM | – | 3.4e-09 M | – | –
10 | COc1ccccc1CC(Oc1ncnc2sc(-c3cccc([N+](=O)[O-])c3)c(-c3ccc(OCCN4CCN(C)CC4)c(Cl)c3C)c12)C(=O)O [Example 545, (2R)-2-{[(5Sa)-5-{3-chloro-2-methyl-4-[2-(4-methylpiperazin-1-yl)ethoxy]phenyl}-6-(3-nitrophenyl)thieno[2,3-d]pyrimidin-4-yl]oxy}-3-(2-methoxyphenyl)propanoic acid] | 1.1 µM | 3.9e-08 M | – | – | –
11 | Cc1c(-c2c(-c3ccco3)sc3ncnc(OC(Cc4ccccc4OCC4CCCC4)C(=O)O)c23)ccc(OCCN2CCN(C)CC2)c1Cl [Example 239, (2R)-2-{[(5Sa)-5-{3-chloro-2-methyl-4-[2-(4-methylpiperazin-1-yl)ethoxy]phenyl}-6-(furan-2-yl)thieno[2,3-d]pyrimidin-4-yl]oxy}-3-[2-(cyclopentylmethoxy)phenyl]propanoic acid] | 0.55 µM | – | 1.1e-08 M | – | –
12 | COc1ccccc1CC(Oc1ncnc2sc(-c3ccc(F)cc3)c(-c3ccc(OCCN4CCN(C)CC4)c(Cl)c3Cl)c12)C(=O)O [Example 647, (2R)-2-{[(5Sa)-5-{2,3-dichloro-4-[2-(4-methylpiperazin-1-yl)ethoxy]phenyl}-6-(4-fluorophenyl)thieno[2,3-d]pyrimidin-4-yl]oxy}-3-(2-methoxyphenyl)propanoic acid] | 0.498 µM | 2.3e-08 M | – | – | –
13 | CCCCn1nccc1COc1ccccc1CC(Oc1ncnc2sc(CCCOC)c(-c3ccc(OCCN4CCN(C)CC4)c(Cl)c3C)c12)C(=O)O [Example 617, (2R)-3-{2-[(1-butyl-1H-pyrazol-5-yl)methoxy]phenyl}-2-{[(5Sa)-5-{3-chloro-2-methyl-4-[2-(4-methylpiperazin-1-yl)ethoxy]phenyl}-6-(3-methoxypropyl)thieno[2,3-d]pyrimidin-4-yl]oxy}propanoic acid] | 0.277 µM | 5.4e-09 M | – | – | –
14 | Cc1c(-c2c(-c3ccc(Cl)o3)sc3ncnc(OC(Cc4ccccc4OCc4cocn4)C(=O)O)c23)ccc(OCCN2CCN(C)CC2)c1Cl [Example 376, (2R)-2-{[6-(5-chlorofuran-2-yl)-(5Sa)-5-{3-chloro-2-methyl-4-[2-(4-methylpiperazin-1-yl)ethoxy]phenyl}thieno[2,3-d]pyrimidin-4-yl]oxy}-3-[2-(1,3-oxazol-4-ylmethoxy)phenyl]propanoic acid] | 0.076 µM | – | 2e-09 M | – | –
15 | C#CCOc1ccccc1CC(Oc1ncnc2sc(-c3ccco3)c(-c3ccc(OCCN4CCN(C)CC4)c(Cl)c3C)c12)C(=O)O [Example 216, (2R)-2-{[(5Sa)-5-{3-chloro-2-methyl-4-[2-(4-methylpiperazin-1-yl)ethoxy]phenyl}-6-(furan-2-yl)thieno[2,3-d]pyrimidin-4-yl]oxy}-3-[2-(prop-2-yn-1-yloxy)phenyl]propanoic acid] | 0.217 µM | – | 8.5e-09 M | – | –
16 | COc1ccccc1CC(Oc1ncnc2sc(-c3ccc(F)cc3)c(-c3ccc(OCCN4CCN(C)CC4)c(Cl)c3C)c12)C(=O)OCc1oc(=O)oc1C [Example 644, (5-methyl-2-oxo-1,3-dioxol-4-yl)methyl (2R)-2-{[(5Sa)-5-{3-chloro-2-methyl-4-[2-(4-methylpiperazin-1-yl)ethoxy]phenyl}-6-(4-fluorophenyl)thieno[2,3-d]pyrimidin-4-yl]oxy}-3-(2-methoxyphenyl)propanoate] | 0.248 µM | 3.7e-07 M | – | – | –
17 | Cc1c(-c2c(-c3ccco3)sc3ncnc(OC(Cc4ccccc4OCc4ncccn4)C(=O)O)c23)ccc(OCCN2CCN(C)CC2)c1Cl [Example 286, (2R)-2-{[(5Sa)-5-{3-chloro-2-methyl-4-[2-(4-methylpiperazin-1-yl)ethoxy]phenyl}-6-(furan-2-yl)thieno[2,3-d]pyrimidin-4-yl]oxy}-3-[2-(pyrimidin-2-ylmethoxy)phenyl]propanoic acid] | 0.508 µM | – | 7.6e-09 M | – | –
18 | Cc1c(-c2c(-c3ccco3)sc3ncnc(OC(Cc4ccccc4OCc4cc5ccccc5cn4)C(=O)O)c23)ccc(OCCN2CCN(C)CC2)c1Cl [Example 230, (2R)-2-{[(5Sa)-5-{3-chloro-2-methyl-4-[2-(4-methylpiperazin-1-yl)ethoxy]phenyl}-6-(furan-2-yl)thieno[2,3-d]pyrimidin-4-yl]oxy}-3-[2-(isoquinolin-3-ylmethoxy)phenyl]propanoic acid] | 0.312 µM | – | 1.2e-08 M | – | –
19 | CC#Cc1sc2ncnc(OC(Cc3ccccc3OC)C(=O)O)c2c1-c1ccc(OCCC2CCN(C)CC2)c(Cl)c1C [Example 465, (2R)-2-{[(5Sa)-5-{3-chloro-2-methyl-4-[2-(1-methylpiperidin-4-yl)ethoxy]phenyl}-6-(prop-1-yn-1-yl)thieno[2,3-d]pyrimidin-4-yl]oxy}-3-(2-methoxyphenyl)propanoic acid] | 2.06 µM | 2.5e-08 M | – | – | –
20 | COc1ccc(COc2ccccc2CC(Oc2ncnc3sc(-c4ccco4)c(-c4ccc(OCCN5CCN(C)CC5)c(Cl)c4C)c23)C(=O)O)nc1 [Example 233, (2R)-2-{[(5Sa)-5-{3-chloro-2-methyl-4-[2-(4-methylpiperazin-1-yl)ethoxy]phenyl}-6-(furan-2-yl)thieno[2,3-d]pyrimidin-4-yl]oxy}-3-{2-[(5-methoxypyridin-2-yl)methoxy]phenyl}propanoic acid] | 0.099 µM | – | 3.4e-09 M | – | –
